Values after ≈ are worked out from the molar mass of the structure shown.
Assays:
Assay type in all cases: functional
Bacillus subtilis [1] = experiment: Minimum inhibitory concentration of compound against Bacillus subtilis
Bacillus subtilis [2] = experiment: Minimum bactericidal concentration of compound against Bacillus subtilis
Staphylococcus aureus [3] = experiment: Minimum bactericidal concentration of compound against Staphylococcus aureus
Staphylococcus aureus [4] = experiment: Minimum inhibitory concentration of compound against Staphylococcus aureus

SMILES | MIC (Bacillus subtilis [1]) [µg/mL] | MBC (Bacillus subtilis [2]) [µg/mL] | MBC (Staphylococcus aureus [3]) [µg/mL] | MIC (Staphylococcus aureus [4]) [µg/mL]
COC1=CC(=O)C2=C(COC3CC(=O)OC23)C1=O (stereo not drawn) | 32 (≈ 128 µM) | 128 (≈ 512 µM) | > 128 | 64 (≈ 256 µM)
COc1ccc2c(c1OC)COC1CC(=O)OC21 (stereo not drawn) | 128 (≈ 511 µM) | > 128 | > 128 | 128 (≈ 511 µM)

— ChEMBL document CHEMBL1147435, “Synthesis and antibiotic activity of the tricyclic furo[3,2-c] isochromen-2-trione unit of the pyranonaphthoquinones” (2004)
